Activity calls are given as the source filed them.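 The calls were made as follows: active = maximal percent inhibition of the deubiquitinase OTUD3 of at least 30% across the tested doses; inactive = the rest.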
Molecular target: OTU domain-containing protein 3 (Homo sapiens) (UniProt Q5T2D3)
Test: Validation of screening hits, potency titration, in vitro enzymatic, OTU domain-containing protein 3 DUB inhibitors (AID 1645868)
Details: purified OTUD3, ubiquitin-rhodamine cleavage fluorescence, 2 h

Chain of OTU domain-containing protein 3 (Homo sapiens) (Q5T2D3 whole entry, looked up, the tested form may be a part): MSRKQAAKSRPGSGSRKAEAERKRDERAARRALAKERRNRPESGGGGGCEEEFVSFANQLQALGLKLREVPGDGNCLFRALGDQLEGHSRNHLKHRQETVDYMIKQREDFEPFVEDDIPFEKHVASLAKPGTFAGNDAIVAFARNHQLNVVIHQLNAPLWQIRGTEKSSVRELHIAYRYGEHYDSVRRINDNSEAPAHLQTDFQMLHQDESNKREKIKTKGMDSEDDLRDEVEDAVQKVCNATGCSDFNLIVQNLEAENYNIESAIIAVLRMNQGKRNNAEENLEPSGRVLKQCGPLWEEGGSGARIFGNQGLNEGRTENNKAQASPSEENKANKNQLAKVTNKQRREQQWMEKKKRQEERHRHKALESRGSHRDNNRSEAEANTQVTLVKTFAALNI

Compound	IC50
Cc1nn(Cc2ccccc2)c(Cl)c1C(=O)NC1CCCc2ccccc21 (stereo not drawn)	> 50 µM (inactive)
CCOC(=O)C1CCN(C(=O)c2ccc3c(c2)NC(=O)C2CCCN32)CC1 (stereo not drawn)	> 50 µM (inactive)
COc1ccc(NC(=O)CSc2nnc(Cc3cccc4ccccc34)n2C)cc1	> 50 µM (inactive)
O=C(c1ccc2cc[nH]c2c1)N1CCC(Nc2cccnc2)C1 (stereo not drawn)	> 50 µM (inactive)
COc1cc(C)cc2c1C(=O)c1c(cc(O)c(Cl)c1O)C2=O	2.08 µM
O=C(NCC1CC1)C1CCCN(c2ccc(-c3ccccc3)nn2)C1 (stereo not drawn)	> 50 µM (inactive)
Cc1noc(C)c1S(=O)(=O)Nc1ccc(C(=O)Nc2ccc3c(c2)OCCO3)cc1	> 50 µM (inactive)
O=C(Cc1cccc2ccccc12)Nc1nc2ccc(F)cc2s1	> 50 µM (inactive)
COc1ccc(CNC(=O)Nc2cccc3ccccc23)cc1	13.8 µM
Cc1ccc2[nH]c(=O)c(CN(Cc3cccnc3)C(=O)c3cccc(Cl)c3)cc2c1	> 50 µM (inactive)
O=C(Cn1c(-c2ccccc2)ncc(C(=O)NC2CC2)c1=O)Nc1ccccc1	25.5 µM
COc1ncccc1CN1CCn2c(Cn3cncn3)cnc2C1C (stereo not drawn)	> 50 µM (inactive)
CCNc1nc(SCC(C)=O)nc2sc3c(c12)CCC(C)C3 (stereo not drawn)	> 50 µM (inactive)
COc1ccc(NC(=O)c2nnc(C(=O)NCCN3CCCCCC3)s2)cc1	38.8 µM
O=C(CSc1nnc(Cn2cnc3ccccc32)o1)Nc1ccc([N+](=O)[O-])cc1	20.2 µM
CCCCCC(=O)N1c2ccccc2NC2=C(C(=O)CC(c3ccc(C(C)(C)C)cc3)C2)C1c1ccncc1 (stereo not drawn)	19.7 µM
Nc1nc(OCc2ccccc2)c2[nH]c(/C=C/c3cccs3)nc2n1	29 µM
CCOC(=O)c1ccc(NC(=O)c2cnc(N3CCOCC3)nc2)cc1	> 50 µM (inactive)
Cc1cc(C(=O)CSc2nc3ccccc3[nH]2)c(C)n1Cc1ccco1	> 50 µM (inactive)
FC(F)(F)c1ccccc1CCN1CCc2nc3ncc(Cl)cc3cc2C1	> 50 µM (inactive)
COc1ccc(NC(=O)COc2ccc3ccc(=O)oc3c2)cc1	> 50 µM (inactive)
CC(C)N1C[C@@H]2C[C@H](NS(=O)(=O)c3cccc(C#N)c3)CN2Cc2ccccc21	> 50 µM (inactive)
COc1ccc(C(=O)Nc2cc3c4c(c2)C(C)C(=O)N4CCC3)cc1 (stereo not drawn)	> 50 µM (inactive)
Cc1ccc(-c2nc(N3CCCC(O)C3)ncc2-c2cnccn2)s1 (stereo not drawn)	> 50 µM (inactive)

Compound	IC50
O=C(CN1C=NC2=NS(=O)(=O)c3ccccc3N21)Nc1cc(F)ccc1F	31.8 µM
COc1ccc(OC)c2c(C)cc(N3CCN(S(=O)(=O)c4ccc5c(c4)CCCN5S(C)(=O)=O)CC3)nc12	21.1 µM
COc1cc2cc3c(c(O)c2c(O)c1-c1c(OC)cc2cc4c(c(O)c2c1O)C(=O)OC1CC(C)OC41)C(=O)OC1CC(C)OC31 (stereo not drawn)	> 50 µM (inactive)
Cc1oc(C2CC2)cc1C(=O)N1CCC2(CC1)CC1(CO2)Nc2ccccc2-n2cccc21 (stereo not drawn)	> 50 µM (inactive)
O=C(NC1CC1)c1ccnn1-c1ccc2ccc(-c3ccncc3)cn12	> 50 µM (inactive)
Nc1ncnc2c1ncn2[C@@H]1O[C@H](CO)C[C@@H]1O	33.4 µM
Cc1cc(O)cc2cc3c(c(O)c12)C(=O)CCC3O (stereo not drawn)	> 50 µM (inactive)
Cc1ccc(C(=O)NCC(=O)Nc2nc3ccccc3[nH]2)c(C)c1	35.3 µM
Cc1cc(C)c2nc3c(cc2c1)CN(Cc1ccco1)C(=O)O3	> 50 µM (inactive)
COc1ccccc1CC(=O)N(C)C(c1ccccc1)c1ccccc1	> 50 µM (inactive)
COc1ccc(-c2cc3nc(C)cc(Nc4ccc(F)cc4)n3n2)cc1OC	> 50 µM (inactive)
Cc1ccc(NC(=O)CSc2nc3c(cc2C#N)C(=O)CCC3)cc1	30.2 µM
Cc1ccc(C(=O)Nc2c(C(=O)N3CCN(c4ccccc4)CC3)[nH]c3ccccc23)cc1	> 50 µM (inactive)
O=c1c(OC2O[C@H](CO)[C@H](O)[C@H](O)[C@H]2O)c(-c2ccc(O)cc2)oc2cc(O)cc(O)c12 (stereo partly drawn)	49.9 µM
COc1ccc2cc3c(nc2c1)OC(=O)N(CCc1cccc(F)c1)C3	> 50 µM (inactive)
CCc1nc2c(NC(=O)Nc3cccc(C(=O)OC)c3)cccn2n1	> 50 µM (inactive)
COc1cccc(NC(=O)CSc2nnc(-c3cc4cccc(OC)c4o3)n2C)c1	35.9 µM
Cc1cc(Cl)c2c(c1)[C@]1(C(=O)N2)N2CCC[C@H]2[C@@H](C(=O)c2cc3ccccc3o2)[C@]12C(=O)Nc1ccccc12	> 50 µM (inactive)
O=c1c2cc([N+](=O)[O-])ccc2nc(CN2CCN(c3ccccn3)CC2)n1-c1ccccc1F	> 50 µM (inactive)
CCn1c(SCc2nc(N)c3ccccc3n2)nc2ccccc21	> 50 µM (inactive)
CC1=C[C@@H](C)CC[C@H]2O[C@@H](C3=C(O)C(=O)C(C)=C4O[C@](O)(C=C43)[C@@H](C)C[C@H](C)C1)[C@H](C)[C@@H](O)[C@H]2C	20 µM
CC[C@H](C)[C@H](NC(=O)[C@H]([C@@H](C)CC)N(C)C(C)=O)C(=O)N[C@H](C(=O)N[C@@H](CC(C)C)C(=O)C1(C)CO1)[C@@H](C)O (stereo partly drawn)	> 50 µM (inactive)
Cc1ccc2nc(NC(=O)C3CCCN3S(=O)(=O)c3ccc4c(c3)OCCO4)sc2c1 (stereo not drawn)	> 50 µM (inactive)
O=C(Nc1ccc2c(c1)OCCO2)c1ccc(N2CCCC2=O)cc1	> 50 µM (inactive)

Compound	IC50
CC(=O)N1CCc2cc(S(=O)(=O)NCCC(=O)Nc3cccc(C)c3C)ccc21	23.3 µM
O=C(Nc1ccccc1Cl)N(Cc1cc2cc3c(cc2[nH]c1=O)OCCO3)C1CCCCC1	40.6 µM
CCn1cc2c(n1)c(=O)n(Cc1ccc(C)cc1)c(=O)n2CC(=O)Nc1ccc(F)cc1	22.7 µM
CSc1ccc(CNCc2c(C(=O)O)n(Cc3ccccc3)c3cc(C)ccc23)cc1	> 50 µM (inactive)
CC(C)Cc1nc2sc3c(NCCN4CCOCC4)ncnc3c2c2c1CCC2	> 50 µM (inactive)
O=C1C[C@@H]2O[C@H](CNC(=O)[C@@H]3CN(CCN3C(=O)C3CCOCC3)C(=O)[C@@H]3C[C@@H](CN3Cc3ccc(F)c(F)c3)N1)[C@@H](O)[C@H]2O	> 50 µM (inactive)
O=C(CSc1ncnc2c1oc1ccccc12)NC1CCCC1	24.4 µM
O=C(c1ccnn1-c1ccc2ccc(-c3ccncc3)cn12)N1CCCC1	> 50 µM (inactive)
O=C(CSc1ccc2nnc(-c3ccccc3)n2n1)N1CCCc2ccccc21	15 µM
Cc1ccc(NC(=O)c2cc(-c3cccnc3)n(-c3ccccc3)n2)nc1	> 50 µM (inactive)
O=C(CCc1nnc2n(Cc3ccc(F)cc3)c(=O)c3ccccc3n12)N1CCN(c2ccccn2)CC1	> 50 µM (inactive)
O=C(COc1ncnc2ccccc12)Nc1ccc2c(c1)OC1(CCCC1)O2	46.2 µM
Cc1nn(-c2ccc(F)cc2)cc1-c1noc(C(=O)NCc2ccccn2)n1	25.1 µM
COC(=O)c1cc(C)sc1NC(=O)c1cccc(OC)c1OC	> 50 µM (inactive)
Cc1cccc(NC(=O)Nc2ccc(C)n(CC(=O)Nc3ccccc3)c2=O)c1	> 50 µM (inactive)
CCc1cccc(CC)c1NC(=O)COC(=O)c1cc2cccc(OC)c2oc1=O	27.6 µM
O=S(=O)(Nc1ccc2oc(-c3ccncc3)nc2c1)c1ccccc1	> 50 µM (inactive)
c1cncc(-c2nc(Nc3ccc4c(c3)OCCO4)c3ccccc3n2)c1	> 50 µM (inactive)
Fc1ccc(-c2noc(-c3nnc(NCc4cccnc4)c4ccccc34)n2)cc1	> 50 µM (inactive)
Cc1cc(C)c(NC(=O)CSc2nc3nccnc3c(=O)n2Cc2ccccc2Cl)c(C)c1	> 50 µM (inactive)
Cc1cc(NCC2CC2)n2nc(Nc3cc(Cl)ccc3C)nc2n1	> 50 µM (inactive)
COc1ccc(N2C(=O)[C@@H]3[C@H]4c5ccccc5C=CN4C(C(=O)Nc4ccc5c(c4)OCO5)[C@@H]3C2=O)cc1 (stereo partly drawn)	> 50 µM (inactive)
Cc1ccc2c(=O)c3c([nH]c2c1C)CCN(CC(=O)NCc1ccc2c(c1)OCO2)C3	> 50 µM (inactive)
Cc1cccc(C(=O)Nc2ccccc2Sc2nc3c(c(=O)n(C)c(=O)n3C)n2C)c1	> 50 µM (inactive)

Compound	IC50
O=C(c1ccco1)N1CCCC2(C1)Nc1cccnc1NC2=NC1CCCC1 (stereo not drawn)	> 50 µM (inactive)
Cc1ccc(OC(=O)c2cn(-c3ccccc3)nc2-c2cccnc2)cc1	> 50 µM (inactive)
C=C(NC(=O)C(=C)NC(=O)c1csc(-c2ccc3c(n2)-c2csc(n2)-c2csc(n2)C(C(C)C2CO2)NC(=O)C(Cc2ccc(O)cc2)NC(=O)c2csc(n2)C(C(O)c2ccccc2)NC(=O)c2nc(sc2C)C(CC(N)=O)NC(=O)c2csc-3n2)n1)C(=O)O (stereo not drawn)	43.6 µM
Cc1ccc(NC(=O)/C=C/c2cccc(C(F)(F)F)c2)c(O)c1	30.5 µM
COc1ccccc1NS(=O)(=O)c1ccc2oc(SCC(=O)c3ccccc3)nc2c1	> 50 µM (inactive)
CCN1C[C@@H]2C[C@]2(c2ccccc2OC)C(=O)c2ncccc21	> 50 µM (inactive)
COc1cc(/C=C/C(=O)OCC(=O)Nc2ccc([N+](=O)[O-])cc2OC)ccc1O	24.4 µM
c1ccc(-c2noc(-c3cc(-c4ccncc4)nc4ccccc34)n2)nc1	> 50 µM (inactive)
O=C(NCc1ccccc1)Nc1cccc2ccccc12	40.3 µM
Clc1cccc(N2CCN(c3ncnc4nc[nH]c34)CC2)c1	> 50 µM (inactive)
CCOCCCn1c(SCC(=O)Nc2ccccc2C(F)(F)F)nc2ccccc2c1=O	19.4 µM
CCOc1ccc(NC(=O)Cn2cc(C(=O)c3ccc(Cl)cc3)c(=O)c3cc(OC)ccc32)cc1	4.68 µM
N=C1C(c2nc3ccccc3s2)=C(O)CN1Cc1ccc(F)cc1	> 50 µM (inactive)
Nc1nc(-c2ccc[nH]2)cs1	> 50 µM (inactive)
Cn1c(=O)sc2cc(NC(=O)c3ccc(Br)cc3)ccc21	15.2 µM
Cc1sc(-c2cccnc2)nc1OC(=O)c1ccc(Cl)c(Cl)c1	> 50 µM (inactive)
CCOC(=O)c1ccc(S(=O)(=O)N2CCC(C(=O)OC(C)C(=O)Nc3cccc([N+](=O)[O-])c3)CC2)cc1 (stereo not drawn)	17.3 µM
CN(C)c1cc(-n2cnc(C(=O)NCc3ccccc3Cl)c2)ncn1	30.4 µM
N#C/C(=C/c1sc(N2CCOCC2)nc1-c1ccccc1)c1ccccn1	> 50 µM (inactive)
Cc1c(Cl)cccc1NC(=O)Cn1c(=O)c2ccccc2n2nncc12	> 50 µM (inactive)
CCOc1ccc(NC(=O)COc2cccc(-n3cnnn3)c2)cc1	> 50 µM (inactive)
